Test results from the CheMixHub ionic liquid set.

Assay: xn = mol fraction of the nth substance listed

CCCCCCCCCCCC[N+](C)(C)Cc1ccccc1.[Cl-] + CC(C)C[C@H](NC(=O)CN)C(=O)O + O
electrical conductivity [S/m], 101 kPa
Details	293.15 K	298.15 K	303.15 K	308.15 K	313.15 K
x2 = 0.0008999, x1 = 0.0002654	0.0792	0.0889	0.0993	0.11	0.123
x2 = 0.0008999, x1 = 0.0002843	0.0824	0.0926	0.104	0.116	0.129
x2 = 0.0008999, x1 = 0.0003023	0.0854	0.096	0.107	0.12	0.134
x2 = 0.0008999, x1 = 0.0003252	0.0892	0.101	0.113	0.126	0.14
x2 = 0.0009, x1 = 0.0001699	0.0609	0.068	0.0754	0.0833	0.0918
x2 = 0.0009, x1 = 0.000197	0.0669	0.0747	0.083	0.0919	0.102
x2 = 0.0009, x1 = 0.000222	0.0716	0.0801	0.0893	0.0991	0.11
x2 = 0.0009, x1 = 0.0002447	0.0757	0.0848	0.0946	0.105	0.117
x2 = 0.0009001, x1 = 5.034e-05	0.0218	0.0243	0.0272	0.0302	0.0333
x2 = 0.0009001, x1 = 7.251e-05	0.03	0.0335	0.0373	0.0412	0.0454
x2 = 0.0009001, x1 = 9.522e-05	0.038	0.0425	0.0473	0.0521	0.0573
x2 = 0.0009001, x1 = 0.0001178	0.0458	0.0511	0.0567	0.0625	0.0687
x2 = 0.0009001, x1 = 0.0001434	0.0539	0.0601	0.0666	0.0734	0.0808
x2 = 0.001793, x1 = 4.141e-05	0.0191	0.0215	0.0243	0.0271	0.0301
x2 = 0.001793, x1 = 6.45e-05	0.0271	0.0306	0.0342	0.038	0.0421
x2 = 0.001793, x1 = 8.905e-05	0.0354	0.0397	0.0444	0.0491	0.0542
x2 = 0.001793, x1 = 0.0001112	0.0424	0.0477	0.0531	0.0587	0.0648
x2 = 0.001793, x1 = 0.0001367	0.05	0.056	0.0624	0.069	0.0761
x2 = 0.001793, x1 = 0.0001631	0.0569	0.0637	0.0707	0.0787	0.0879
x2 = 0.001793, x1 = 0.0001904	0.0632	0.0708	0.0791	0.0877	0.0969
x2 = 0.001793, x1 = 0.0002156	0.0683	0.0767	0.0859	0.0955	0.106
x2 = 0.001793, x1 = 0.0002389	0.0727	0.0819	0.0918	0.102	0.114
x2 = 0.001793, x1 = 0.00026	0.0766	0.0863	0.0969	0.108	0.121
x2 = 0.001793, x1 = 0.0002803	0.0802	0.0905	0.102	0.114	0.127
x2 = 0.001793, x1 = 0.0003015	0.0838	0.0947	0.107	0.12	0.133
x2 = 0.001793, x1 = 0.0003211	0.0872	0.0986	0.112	0.125	0.139

CCCC[N+](CCCC)(CCCC)CCCC.[Cl-] + CC(C)[C@H](N)C(=O)O
100 kPa
Details	electrical conductivity, 313.15 K [S/m]	electrical conductivity, 323.15 K [S/m]	electrical conductivity, 333.15 K [S/m]	electrical conductivity, 343.15 K [S/m]	electrical conductivity, 353.15 K [S/m]	viscosity, 313.15 K [mPa·s]	viscosity, 323.15 K [mPa·s]	viscosity, 333.15 K [mPa·s]	viscosity, 343.15 K [mPa·s]	viscosity, 353.15 K [mPa·s]
x1 = 0.9	0.041	0.059	0.082	0.0989	0.123	800	460	258	145	82
x1 = 0.9091	0.029	0.041	0.055	0.0751	0.095	900	510	256	146	82
x1 = 0.9167	0.038	0.05	0.07	0.0901	0.116	587	313	196	105	63

CCCCCCCCCCCC[N+](C)(C)Cc1ccccc1.[Cl-] + CC(C)[C@H](N)C(=O)O + O
electrical conductivity [S/m], 101 kPa
Details	293.15 K	298.15 K	303.15 K	308.15 K	313.15 K
x2 = 0.0008891, x1 = 0.0003	0.0839	0.0943	0.106	0.118	0.132
x2 = 0.0008891, x1 = 0.000319	0.087	0.0977	0.11	0.123	0.137
x2 = 0.0008892, x1 = 0.0001722	0.0627	0.0699	0.0776	0.0856	0.0943
x2 = 0.0008892, x1 = 0.0001982	0.0677	0.0756	0.0841	0.0932	0.103
x2 = 0.0008892, x1 = 0.000222	0.0717	0.0802	0.0894	0.0993	0.11
x2 = 0.0008892, x1 = 0.0002429	0.0751	0.0841	0.0939	0.104	0.116
x2 = 0.0008892, x1 = 0.0002636	0.0783	0.0878	0.0982	0.109	0.122
x2 = 0.0008892, x1 = 0.0002822	0.0812	0.0912	0.102	0.114	0.127
x2 = 0.0008893, x1 = 7.858e-05	0.0307	0.0345	0.0383	0.0422	0.046
x2 = 0.0008893, x1 = 9.958e-05	0.0385	0.0432	0.0479	0.0528	0.0577
x2 = 0.0008893, x1 = 0.0001218	0.0467	0.0524	0.058	0.064	0.0701
x2 = 0.0008893, x1 = 0.0001461	0.0553	0.0619	0.0686	0.0756	0.0827
x2 = 0.0008894, x1 = 5.704e-05	0.0227	0.0255	0.0283	0.0312	0.034
x2 = 0.001757, x1 = 5.785e-05	0.0228	0.0256	0.0285	0.0315	0.0345
x2 = 0.001757, x1 = 7.859e-05	0.0304	0.0341	0.0379	0.0418	0.0458
x2 = 0.001757, x1 = 0.0001001	0.0382	0.0428	0.0475	0.0528	0.0574
x2 = 0.001757, x1 = 0.000121	0.0457	0.0512	0.0568	0.0628	0.0689
x2 = 0.001757, x1 = 0.0001443	0.0537	0.0601	0.0666	0.0735	0.0809
x2 = 0.001757, x1 = 0.0001688	0.0607	0.0676	0.075	0.0828	0.0914
x2 = 0.001757, x1 = 0.0001945	0.0657	0.0733	0.0815	0.0905	0.1
x2 = 0.001757, x1 = 0.0002205	0.07	0.0783	0.0872	0.0971	0.108
x2 = 0.001757, x1 = 0.0002437	0.0737	0.0826	0.0919	0.103	0.114
x2 = 0.001757, x1 = 0.0002647	0.0773	0.0864	0.0965	0.108	0.12
x2 = 0.001757, x1 = 0.0002841	0.0803	0.09	0.101	0.112	0.126
x2 = 0.001757, x1 = 0.0003021	0.0834	0.0937	0.105	0.117	0.13
x2 = 0.001757, x1 = 0.0003234	0.0872	0.0978	0.11	0.122	0.136
